Source: patent US20230272029A1, “CO-AGONISTS AT GLP-1 AND GIP RECEPTORS SUITABLE FOR ORAL DELIVERY” (Novo Nordisk A/S, priority 2020, published 2023)
Marks after values point to notes of the source that are not given here. Starred links: 1 amine or outer side, 2 acyl side, 3 side chain; linkers in the order of their positions; H or OH if unused. Non-standard residues stand in square brackets, D forms with d. Residues, ends and D or L forms follow the SMILES beside them. Groups on a side chain read outwards from the residue. *: point of attachment. C18 diacid = O=C(O)CCCCCCCCCCCCCCCCC(=O)*; γGlu = O=C(O)[C@H](CCC(=O)[*:2])N[*:1]; εLys = N[C@@H](CCCCN[*:1])C(=O)[*:2]; AEEA = NCCOCCOCC(=O)O; Aib = CC(C)(N)C(=O)O

Test: Pharmacokinetic study in dogs after oral dosing of tablets with SNAC
Type: in vivo, Beagle dogs
Experimental: The purpose of this example is to determine the half-life and plasma exposure in vivo of the compounds of the present invention after p.o. administration to beagle dogs, i.e. the terminal half-life and concentration of test substance that reaches circulation with time. This is done in a pharmacokinetic (PK) study, where these parameters of the compound in question are determined. By terminal half-life is generally meant the period of time it takes to halve a certain plasma concentration, measured after the initial distribution phase.
The amount of SNAC in the tablet composition was 100-300 mg, the amount of magnesium stearate in the tablet composition was 7.7 mg, and the target amount of each test substance in the tablet composition was 3-4 mg.
Male beagle dogs, 1-7 years of age and weighing 9-17 kg during the study period, were included in the study. The dogs were dosed in a fasting state. The dogs were group housed in pens (12 hours light: 12 hours dark), and fed individually and restrictedly once daily with Royal Canin Medium Adult dog food (Royal Canin Products, China Branch, or Brogaarden A/S, Denmark). The dogs were used for repeated PK studies with a suitable wash-out period between successive dosing. An appropriate acclimatization period was given prior to initiation of the first PK study. All handling, dosing, and blood sampling of the animals were performed by trained and skilled staff. Before the studies, the dogs were fasted overnight and from 0 to 4 hours after dosing. The dogs were restricted to water 1 hour before dosing until 4 hours after dosing, but otherwise had ad libitum access to water during the whole period.
The compositions were administered by a single oral dosing to the dogs in groups of 6-8 dogs. […] The mouth was then closed, and 10 mL of tap water was given by syringe or gavage to facilitate swallowing of the tablet.
For each blood sample time point, approximately 0.8 mL of whole blood was collected in a 1.5 mL EDTA-coated tube, which was gently turned to mix the sample with EDTA. Blood samples were collected in EDTA buffer (8 mM) and then centrifuged at 4° C. and 2000g for 10 minutes. Plasma was pipetted into Micronic tubes on dry ice, and kept at −20° C. or lower until analysis. Blood samples were taken as appropriate, for example from a venflon in the cephalic vein in the front leg for the first 2 hours and then with syringe from the jugular vein for the rest of the time points. The first few drops were allowed to drain from the venflon to avoid heparin saline from the venflon in the sample.
All blood samples were collected into test tubes containing EDTA for stabilisation and kept on ice until centrifugation. Plasma was separated from whole blood by centrifugation and the plasma was stored at −20° C. or lower until analysis.
The plasma was analysed for test substance using LC-MS (Liquid Chromatography-Mass Spectrometry) as known to the person skilled in the art. […] RP-HPLC separation was achieved using a linear gradient of 1:1 acetonitrile/methanol in 1% aqueous formic acid using either: a Phenomenex Onyx Monolithic C18 column (50×2.0 mm) and a flow rate of 0.8 mL/min at 30° C.; or an Agilent Poroshell 120 SB-C18 column (50×2.1 mm, 2.7 μm) at a flow rate of 0.4 mL/min at 60° C. The mass spectrometer was operated in either positive ionization SIM mode or positive ionization PRM mode.
For each individual animal, a plasma concentration-time profile was analysed by a non-compartmental model in Pharsight Phoenix WinNonLin ver. 6.4 software or other relevant software for PK analysis, and the resulting terminal half-life (t1/2), maximum plasma concentration per dose (Cmax/D), time for maximum plasma concentration (tmax), and area under the curve to infinity per dose (AUC/D) were determined. Summary statistics of pharmacokinetic results were presented as median (for tmax), harmonic mean ([…]), or arithmetic mean (Cmax, AUC).

Row | Structure (SMILES) | AUC/Dose (dog, in vivo, po) | Cmax/Dose (dog, in vivo, po) | Cmax/Dose (oral tablet, 100 mg SNAC, 3 mg test substance, Beagle dogs, arithmetic mean)
1 | CC[C@H](C)[C@H](NC(=O)[C@H](Cc1ccccc1)NC(=O)[C@H](CCC(=O)O)NC(=O)[C@H](CCCNC(=N)N)NC(=O)[C@H](C)NC(=O)[C@H](C)NC(=O)[C@H](CCC(N)=O)NC(=O)[C@H](CCCCNC(=O)COCCOCCNC(=O)COCCOCCNC(=O)CC[C@H](NC(=O)CCCCCCCCCCCCCCCCC(=O)O)C(=O)O)NC(=O)[C@H](CCC(=O)O)NC(=O)[C@H](CC(C)C)NC(=O)[C@H](Cc1ccc(O)cc1)NC(=O)[C@@H](NC(=O)[C@H](CO)NC(=O)[C@H](Cc1ccc(O)cc1)NC(=O)[C@H](CC(=O)O)NC(=O)[C@H](CO)NC(=O)[C@@H](NC(=O)[C@H](Cc1ccccc1)NC(=O)[C@@H](NC(=O)CNC(=O)[C@H](CCC(=O)O)NC(=O)C(C)(C)NC(=O)[C@@H](N)Cc1ccc(O)cc1)[C@@H](C)O)[C@@H](C)O)[C@@H](C)CC)C(=O)N[C@@H](CCC(=O)O)C(=O)N[C@@H](Cc1c[nH]c2ccccc12)C(=O)N[C@@H](CC(C)C)C(=O)N[C@@H](CC(C)C)C(=O)N[C@@H](C)C(=O)NCC(=O)NCC(=O)N1CCC[C@H]1C(=O)N[C@@H](CO)C(=O)N[C@@H](CO)C(=O)NCC(=O)N[C@@H](C)C(=O)N1CCC[C@H]1C(=O)N1CCC[C@H]1C(=O)N1CCC[C@H]1C(=O)N[C@@H](CO)C(=O)O [Compound No. 10] (H-Y[Aib]EGTFTSDYSIYLEK([AEEA-AEEA-γGlu-C18 diacid])QAAREFIEWLLAGGPSSGAPPPS-OH) | 8.4 kg·h/L | 0.20 kg/L | 
2 | CC[C@H](C)[C@H](NC(=O)[C@H](Cc1ccccc1)NC(=O)[C@H](CCC(=O)O)NC(=O)[C@H](CCCNC(=N)N)NC(=O)[C@H](C)NC(=O)[C@H](C)NC(=O)[C@H](CCC(N)=O)NC(=O)[C@H](CCC(=O)O)NC(=O)[C@H](CCC(=O)O)NC(=O)[C@H](CC(C)C)NC(=O)[C@H](CC(C)C)NC(=O)[C@@H](NC(=O)[C@H](CO)NC(=O)[C@H](Cc1ccc(O)cc1)NC(=O)[C@H](CC(=O)O)NC(=O)[C@H](CO)NC(=O)[C@@H](NC(=O)[C@H](Cc1ccccc1)NC(=O)[C@@H](NC(=O)CNC(=O)[C@H](CCC(=O)O)NC(=O)C(C)(C)NC(=O)[C@@H](N)Cc1ccc(O)cc1)[C@@H](C)O)[C@@H](C)O)[C@@H](C)CC)C(=O)N[C@@H](CCC(=O)O)C(=O)N[C@@H](Cc1c[nH]c2ccccc12)C(=O)N[C@@H](CC(C)C)C(=O)N[C@@H](CC(C)C)C(=O)N[C@@H](C)C(=O)NCC(=O)NCC(=O)N1CCC[C@H]1C(=O)N[C@@H](CO)C(=O)N[C@@H](CCCCNC(=O)[C@@H](N)CCCCNC(=O)[C@@H](N)CCCCNC(=O)CC[C@H](NC(=O)CCCCCCCCCCCCCCCCC(=O)O)C(=O)O)C(=O)NCC(=O)N[C@@H](C)C(=O)N1CCC[C@H]1C(=O)N1CCC[C@H]1C(=O)N1CCC[C@H]1C(=O)N[C@@H](CO)C(=O)O [Compound No. 43] (H-Y[Aib]EGTFTSDYSILLEEQAAREFIEWLLAGGPSK([εLys-εLys-γGlu-C18 diacid])GAPPPS-OH) |  | 0.22 kg/L | 
3 | CC[C@H](C)[C@H](NC(=O)[C@H](Cc1ccccc1)NC(=O)[C@H](CCC(=O)O)NC(=O)[C@H](Cc1c[nH]cn1)NC(=O)[C@H](C)NC(=O)[C@H](C)NC(=O)[C@H](CCC(N)=O)NC(=O)[C@H](CCCCNC(=O)[C@@H](N)CCCCNC(=O)[C@@H](N)CCCCNC(=O)CC[C@H](NC(=O)CCCCCCCCCCCCCCCCC(=O)O)C(=O)O)NC(=O)[C@H](CCC(=O)O)NC(=O)[C@H](CC(C)C)NC(=O)[C@H](CC(C)C)NC(=O)[C@@H](NC(=O)[C@H](CO)NC(=O)[C@H](Cc1ccc(O)cc1)NC(=O)[C@H](CC(=O)O)NC(=O)[C@H](CO)NC(=O)[C@@H](NC(=O)[C@H](Cc1ccccc1)NC(=O)[C@@H](NC(=O)CNC(=O)[C@H](CCC(=O)O)NC(=O)C(C)(C)NC(=O)[C@@H](N)Cc1ccc(O)cc1)[C@@H](C)O)[C@@H](C)O)[C@@H](C)CC)C(=O)N[C@@H](CC(N)=O)C(=O)N[C@@H](Cc1c[nH]c2ccccc12)C(=O)N[C@@H](CC(C)C)C(=O)N[C@@H](CC(C)C)C(=O)N[C@@H](C)C(=O)NCC(=O)NCC(=O)N1CCC[C@H]1C(=O)N[C@@H](CO)C(=O)N[C@@H](CO)C(=O)NCC(=O)N[C@@H](C)C(=O)N1CCC[C@H]1C(=O)N1CCC[C@H]1C(=O)N1CCC[C@H]1C(=O)N[C@@H](CO)C(=O)O [Compound No. 26] (H-Y[Aib]EGTFTSDYSILLEK([εLys-εLys-γGlu-C18 diacid])QAAHEFINWLLAGGPSSGAPPPS-OH) |  | 0.49* kg/L | 
4 | CC[C@H](C)[C@H](NC(=O)[C@H](Cc1ccccc1)NC(=O)[C@H](CCC(=O)O)NC(=O)[C@H](CCCNC(=N)N)NC(=O)[C@H](C)NC(=O)[C@H](C)NC(=O)[C@H](CCC(N)=O)NC(=O)[C@H](CCCCNC(=O)[C@@H](N)CCCCNC(=O)[C@@H](N)CCCCNC(=O)CC[C@H](NC(=O)CCCCCCCCCCCCCCCCC(=O)O)C(=O)O)NC(=O)[C@H](CCC(=O)O)NC(=O)[C@H](CC(C)C)NC(=O)[C@H](Cc1ccc(O)cc1)NC(=O)[C@@H](NC(=O)[C@H](CO)NC(=O)[C@H](Cc1ccc(O)cc1)NC(=O)[C@H](CC(=O)O)NC(=O)[C@H](CO)NC(=O)[C@@H](NC(=O)[C@H](Cc1ccccc1)NC(=O)[C@@H](NC(=O)CNC(=O)[C@H](CCC(=O)O)NC(=O)C(C)(C)NC(=O)[C@@H](N)Cc1ccc(O)cc1)[C@@H](C)O)[C@@H](C)O)[C@@H](C)CC)C(=O)N[C@@H](CCC(=O)O)C(=O)N[C@@H](Cc1c[nH]c2ccccc12)C(=O)N[C@@H](CC(C)C)C(=O)N[C@@H](CC(C)C)C(=O)N[C@@H](C)C(=O)NCC(=O)NCC(=O)N1CCC[C@H]1C(=O)N[C@@H](CO)C(=O)N[C@@H](CO)C(=O)NCC(=O)N[C@@H](C)C(=O)N1CCC[C@H]1C(=O)N1CCC[C@H]1C(=O)N1CCC[C@H]1C(=O)N[C@@H](CO)C(=O)O [Compound No. 9] (H-Y[Aib]EGTFTSDYSIYLEK([εLys-εLys-γGlu-C18 diacid])QAAREFIEWLLAGGPSSGAPPPS-OH) |  | 0.24 kg/L | 
5 | CC[C@H](C)[C@H](NC(=O)[C@H](Cc1ccccc1)NC(=O)[C@H](CCC(=O)O)NC(=O)[C@H](CCCNC(=N)N)NC(=O)[C@H](C)NC(=O)[C@H](C)NC(=O)[C@H](CCC(N)=O)NC(=O)[C@H](CCCCNC(=O)[C@@H](N)CCCCNC(=O)[C@@H](N)CCCCNC(=O)CC[C@H](NC(=O)CCCCCCCCCCCCCCCCC(=O)O)C(=O)O)NC(=O)[C@H](CCC(=O)O)NC(=O)[C@H](CC(C)C)NC(=O)[C@H](Cc1ccc(O)cc1)NC(=O)[C@@H](NC(=O)[C@H](CO)NC(=O)[C@H](Cc1ccc(O)cc1)NC(=O)[C@H](CC(=O)O)NC(=O)[C@H](CO)NC(=O)[C@@H](NC(=O)[C@H](Cc1ccccc1)NC(=O)[C@@H](NC(=O)CNC(=O)[C@H](CCC(=O)O)NC(=O)C(C)(C)NC(=O)[C@@H](N)Cc1ccc(O)cc1)[C@@H](C)O)[C@@H](C)O)[C@@H](C)CC)C(=O)N[C@@H](CCC(=O)O)C(=O)N[C@@H](Cc1c[nH]c2ccccc12)C(=O)N[C@@H](CC(C)C)C(=O)N[C@@H](CC(C)C)C(=O)N[C@@H](CCCNC(=N)N)C(=O)NCC(=O)NCC(=O)N1CCC[C@H]1C(=O)N[C@@H](CCC(=O)O)C(=O)N[C@@H](CO)C(=O)NCC(=O)N[C@@H](C)C(=O)N1CCC[C@H]1C(=O)N1CCC[C@H]1C(=O)N1CCC[C@H]1C(=O)N[C@@H](CO)C(=O)O [Compound No. 13] (H-Y[Aib]EGTFTSDYSIYLEK([εLys-εLys-γGlu-C18 diacid])QAAREFIEWLLRGGPESGAPPPS-OH) |  |  | 0.29 kg/L
